Assays:
[1] = target: T1, FXR (Homo sapiens, UniProt Q96RI1); assay: AlphaScreen corepressor NCoR-2 recruitment assay; format: biochemical; settings: Figure 1I
T1 sequence (Q96RI1 243-472 isoform Q96RI1-2): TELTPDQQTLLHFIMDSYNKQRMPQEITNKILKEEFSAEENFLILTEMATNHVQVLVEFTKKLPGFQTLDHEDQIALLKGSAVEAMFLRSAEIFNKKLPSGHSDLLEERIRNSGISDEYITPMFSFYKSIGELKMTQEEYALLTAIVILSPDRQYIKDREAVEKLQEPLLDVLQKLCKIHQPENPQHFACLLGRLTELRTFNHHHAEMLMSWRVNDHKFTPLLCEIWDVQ

[2] = test system: inflammation, fibrosis and FXR target genes in liver; assay: Liver mRNA levels by qPCR in BDL mice; format: in vivo
[3] = test system: BDL-induced liver injury in mice; assay: Bile duct ligation; format: in vivo
[4] = 3 mg/kg p.o. once daily day 7 to 14 after BDL

Compound: CC[C@H]1[C@@H](O)[C@@H]2[C@H](CC[C@]3(C)[C@@H]([C@H](C)CCC(=O)O)CC[C@@H]23)[C@@]2(C)CC[C@@H](O)C[C@@H]12 [OCA, Obeticholic acid]
- binding affinity between FXR and NCoR2 [1]: decreased the binding affinity
- liver mRNA expression of inflammatory biomarkers IL-6, IL-1β, iNOS, COX2 [2]: significantly decreased
- collagen deposition (Sirius red) compared to the vehicle group [3, 4]: smaller amount
- inflammatory infiltrates (H&E) compared to the vehicle group [3, 4]: lower level
- BDL-induced increase in total bilirubin level in the serum ([3]; once daily day 7 to 14 after BDL): reversed

Reference: publication PMC9795464 (JACS Au, 2022)
